Test results: patent publication US20220062199A1, “PH[…] ACTIVATOR COMPOUNDS, COMPOSITIONS, METHODS AND USES THEREOF” (SOCIETE DES PRODUITS NESTLE S.A., priority 2019, published 2022)

How the values were obtained:
[1] = target: T1, AMPKα2β1γ1 (Homo sapiens, UniProt P54619+P54646+Q9Y478); assay: Activation of bacterially-expressed AMPKα2β1γ1 in vitro (HTRF-KinEASE Cisbio assay); format: biochemical; conditions: CaMKKβ-phosphorylated purified AMPK, varying concentrations, 30 mins, FIG. 1
T1 construct: His; made in house; host or cells: bacteria
T1 sequence (P54646 whole entry): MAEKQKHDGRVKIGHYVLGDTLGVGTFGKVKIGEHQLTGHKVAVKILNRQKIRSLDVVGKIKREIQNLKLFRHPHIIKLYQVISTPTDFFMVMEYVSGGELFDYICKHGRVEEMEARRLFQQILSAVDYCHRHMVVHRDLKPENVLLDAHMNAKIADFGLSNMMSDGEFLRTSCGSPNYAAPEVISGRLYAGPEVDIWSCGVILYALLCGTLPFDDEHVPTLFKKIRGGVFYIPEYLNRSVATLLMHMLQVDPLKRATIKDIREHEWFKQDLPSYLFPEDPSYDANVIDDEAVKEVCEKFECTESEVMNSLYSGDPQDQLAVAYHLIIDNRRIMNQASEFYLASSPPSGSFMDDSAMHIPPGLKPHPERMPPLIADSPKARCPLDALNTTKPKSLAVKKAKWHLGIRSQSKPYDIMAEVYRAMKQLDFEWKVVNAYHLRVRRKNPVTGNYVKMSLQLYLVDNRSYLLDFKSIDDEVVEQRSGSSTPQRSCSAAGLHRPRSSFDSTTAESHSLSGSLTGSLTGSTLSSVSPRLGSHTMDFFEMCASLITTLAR
T1 sequence (Q9Y478 whole entry): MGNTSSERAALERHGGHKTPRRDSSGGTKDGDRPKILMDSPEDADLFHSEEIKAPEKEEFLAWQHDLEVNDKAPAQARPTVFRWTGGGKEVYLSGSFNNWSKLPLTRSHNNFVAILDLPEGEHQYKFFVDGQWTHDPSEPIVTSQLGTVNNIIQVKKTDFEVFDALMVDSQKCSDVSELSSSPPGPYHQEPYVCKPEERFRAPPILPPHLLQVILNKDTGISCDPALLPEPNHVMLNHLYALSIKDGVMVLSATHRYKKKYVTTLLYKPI
T1 sequence (P54619 whole entry): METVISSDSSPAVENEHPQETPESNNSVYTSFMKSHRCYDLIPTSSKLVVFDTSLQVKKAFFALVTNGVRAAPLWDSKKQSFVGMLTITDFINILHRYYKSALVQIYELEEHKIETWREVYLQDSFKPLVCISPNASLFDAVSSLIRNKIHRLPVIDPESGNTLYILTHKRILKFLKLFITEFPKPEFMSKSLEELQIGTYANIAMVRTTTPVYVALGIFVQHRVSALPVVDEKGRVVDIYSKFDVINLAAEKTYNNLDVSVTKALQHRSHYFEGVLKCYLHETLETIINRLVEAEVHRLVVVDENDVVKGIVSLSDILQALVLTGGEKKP
Method: The AMPK heterotrimers were expressed in bacteria and purified through the His-α subunit by nickel purification before further purification through gel filtration. After being phosphorylated by incubation with CaMKKβ, AMPK complexes were further purified with a final gel filtration purification step. Phosphorylated purified AMPK was incubated with varying concentrations of Compound 1 or 2 for 30 mins using substrate and reagents from the HTRF-KinEASE Cisbio assay kit (STK S1 Kit). Phosphorylation of the substrate was measured by incubating with donor and acceptor antibodies for 2 h at room temperature as per the manufacturer's protocol (Coulerie et al., (2016) PMID: 27792327) and phosphorylated peptide detected by performing HTRF. The 665 nm/620 nm ratio was determined and plotted vs the log of the concentration of ligand.

[2] = system: phosphorylation of the AMPK substrate, acetyl-CoA carboxylase (ACC), in U2OS Flp-In T-REx mammalian cells; assay: pACC HTRF assay: phosphorylation of the AMPK substrate ACC in U2OS Flp-In T-REx cells; format: cell-based; conditions: varying concentrations, 1 h, media lacking FBS, FIG. 2
Method: U2OS Flp-In T-REx cells were first seeded at 50 K in a 96-well plate and left overnight at 37 C in DMEM GlutaMAX (Thermo Fisher Scientific) supplemented with 10% (vol/vol) FBS and 100 U/ml penicillin G, and 100 μg/ml streptomycin. Cells were treated for 1 h with varying concentrations of Lusianthridin in media lacking FBS and then cells were lysed in 50 μl of Cisbio lysis buffer #1 supplemented with blocking solution as per the manufacturer's protocol (Cisbio). Cells were lysed for 30 mins at room temperature before 16 μl of lysate was incubated with 4 μl of the HTRF antibodies (1:40 dilution of the acceptor and donor (p)ACC antibodies, as per the manufacturers protocol). Lysates were incubated overnight with the antibodies before 665 nm/620 nm ratio was determined using a MolecularDevices i3 plate reader (with a HTRF cartridge add-on).

| Structure (SMILES) | activation of AMPK complexes in vitro (substrate phosphorylation, 665 nm/620 nm HTRF ratio vs log concentration) [1] | phosphorylation of the AMPK substrate ACC (665 nm/620 nm HTRF ratio) [2] |
| --- | --- | --- |
| COc1cc(O)c2c(ccc3cc(O)ccc32)c1 [Compound 1, 7-Methoxyphenanthrene-2,5-diol] | directly activate AMPK complexes in vitro | increase the phosphorylation of the AMPK substrate, ACC, in a dose-dependent manner |
| COc1cc(O)c2c(ccc3cccc(O)c32)c1 [Compound 2, 2-Methoxyphenanthrene-4,5-diol] | directly activate AMPK complexes in vitro | increase the phosphorylation of the AMPK substrate, ACC, in a dose-dependent manner |
